The NIST ThermoML archive (doi:10.1021/je060107n)

Assay: mn = molality of the nth substance listed, in mol/kg
Conditions: 101 kPa, Liquid; for mass density: Pycnometric method; for viscosity: Capillary tube (Ostwald / Ubbelohde) method; for speed of sound: Linear variable-path acoustic interferometer

O=[N+]([O-])[O-].O=[N+]([O-])[O-].[Mg+2] [magnesium nitrate] + O
Conditions | mass density [kg/m3] | speed of sound [m/s] | viscosity [mPa·s]
314.7 K, m1 = 0.0528 | 996.94 | – | –
315 K, m1 = 0.0145 | 992.8 | – | –
315.05 K, m1 = 1.525 | 1135.2 | – | –
315.1 K, m1 = 3.501 | 1288.9 | – | –
315.15 K, m1 = 3.757 | 1305.4 | – | –
315.25 K, m1 = 0.9898 | 1088.5 | – | –
315.25 K, m1 = 1.262 | 1112.4 | – | –
315.3 K, m1 = 3.17 | 1270.8 | – | –
315.6 K, m1 = 4.728 | 1367.6 | – | –
315.8 K, m1 = 5.134 | 1391.1 | – | –
315.95 K, m1 = 0.3405 | 1025.4 | – | –
316.1 K, m1 = 0.896 | 1079 | – | –
316.1 K, m1 = 2.793 | 1238.2 | – | –
316.15 K, m1 = 1.827 | 1162.1 | – | –
316.25 K, m1 = 4.039 | 1322.3 | – | –
316.35 K, m1 = 4.97 | 1380.1 | – | –
316.45 K, m1 = 5.282 | 1399.6 | – | –
316.75 K, m1 = 0.6173 | 1052.2 | – | –
317.15 K, m1 = 0.0528 | 995.93 | – | –
317.15 K, m1 = 3.501 | 1287.7 | – | –
317.25 K, m1 = 1.525 | 1134 | – | –
317.25 K, m1 = 3.096 | 1259.7 | – | –
317.35 K, m1 = 2.493 | 1213.8 | – | –
317.35 K, m1 = 3.757 | 1304.1 | – | –
317.5 K, m1 = 0.9898 | 1087.3 | – | –
317.5 K, m1 = 1.262 | 1111.2 | – | –
317.55 K, m1 = 3.118 | 1260.5 | – | –
317.55 K, m1 = 4.285 | 1337.9 | – | –
317.75 K, m1 = 2.131 | 1186 | – | –
317.85 K, m1 = 0.2491 | 1016.9 | – | –
317.95 K, m1 = 4.883 | 1372.7 | – | –
318.15 K, m1 = 0.0145 | – | 1540.2 | 0.6082
318.15 K, m1 = 0.0528 | – | 1541.4 | 0.62
318.15 K, m1 = 0.2491 | – | 1554.4 | 0.655
318.15 K, m1 = 0.3405 | – | 1552.3 | –
318.15 K, m1 = 0.5931 | – | – | 0.7284
318.15 K, m1 = 0.6173 | – | 1572 | –
318.15 K, m1 = 0.896 | – | 1590 | –
318.15 K, m1 = 0.9898 | – | 1596.3 | 0.8367
318.15 K, m1 = 1.262 | – | 1612.6 | 0.9225
318.15 K, m1 = 1.525 | – | 1629.5 | –
318.15 K, m1 = 1.827 | 1160.9 | 1650.5 | 1.117
318.15 K, m1 = 2.131 | – | 1668.7 | 1.245
318.15 K, m1 = 2.493 | – | 1689.3 | –
318.15 K, m1 = 2.584 | – | – | 1.473
318.15 K, m1 = 2.793 | – | 1708.7 | –
318.15 K, m1 = 3.096 | – | – | 1.772
318.15 K, m1 = 3.118 | – | 1727.2 | –
318.15 K, m1 = 3.17 | – | 1733.9 | –
318.15 K, m1 = 3.329 | – | – | 1.935
318.15 K, m1 = 3.501 | – | 1748.8 | –
318.15 K, m1 = 3.704 | – | – | 2.216
318.15 K, m1 = 3.757 | – | 1761.7 | –
318.15 K, m1 = 4.039 | – | – | 2.545
318.15 K, m1 = 4.051 | 1321.2 | 1776 | –
318.15 K, m1 = 4.285 | – | 1787.8 | –
318.15 K, m1 = 4.403 | – | 1794.4 | –
318.15 K, m1 = 4.728 | – | – | 3.456
318.15 K, m1 = 4.883 | – | 1818.4 | –
318.15 K, m1 = 4.907 | – | – | 3.76
318.15 K, m1 = 5.134 | – | 1832.8 | –
318.15 K, m1 = 5.282 | – | – | 4.426
318.25 K, m1 = 3.704 | 1300.4 | – | –
318.35 K, m1 = 2.584 | 1221.6 | – | –
318.4 K, m1 = 0.896 | 1077.9 | – | –
318.5 K, m1 = 4.97 | 1378.6 | – | –
318.7 K, m1 = 1.694 | 1148.1 | – | –
318.8 K, m1 = 4.403 | 1344 | – | –
318.8 K, m1 = 5.282 | 1398.1 | – | –
318.9 K, m1 = 0.5931 | 1048.4 | – | –
319.05 K, m1 = 0.6173 | 1051.1 | – | –
319.35 K, m1 = 1.525 | 1132.8 | – | –
319.35 K, m1 = 3.757 | 1302.8 | – | –
319.45 K, m1 = 3.118 | 1259.2 | – | –
319.5 K, m1 = 3.17 | 1268.1 | – | –
319.55 K, m1 = 0.0528 | 994.98 | – | –
319.55 K, m1 = 1.262 | 1110.2 | – | –
319.9 K, m1 = 2.131 | 1184.8 | – | –
319.9 K, m1 = 4.728 | 1364.8 | – | –
319.95 K, m1 = 0.0145 | 990.65 | – | –
320.2 K, m1 = 5.134 | 1388.4 | – | –
320.25 K, m1 = 2.793 | 1235.8 | – | –
320.3 K, m1 = 1.827 | 1159.7 | – | –
320.3 K, m1 = 4.039 | 1319.5 | – | –
320.65 K, m1 = 0.2491 | 1014.7 | – | –
320.85 K, m1 = 1.694 | 1146.9 | – | –
320.9 K, m1 = 0.3405 | 1023.3 | – | –
320.9 K, m1 = 5.282 | 1396.6 | – | –
321.25 K, m1 = 0.5931 | 1047.4 | – | –
321.35 K, m1 = 3.096 | 1257.2 | – | –
321.6 K, m1 = 2.493 | 1211.3 | – | –
321.75 K, m1 = 0.9898 | 1085.2 | – | –
321.8 K, m1 = 4.285 | 1335.1 | – | –
321.9 K, m1 = 4.728 | 1363.5 | – | –
321.95 K, m1 = 0.0528 | 993.94 | – | –
322.1 K, m1 = 0.0145 | 989.61 | – | –
322.2 K, m1 = 4.883 | 1370 | – | –
322.25 K, m1 = 2.793 | 1234.5 | – | –
322.35 K, m1 = 2.584 | 1219.2 | – | –
322.45 K, m1 = 3.704 | 1297.7 | – | –
322.45 K, m1 = 4.039 | 1318.2 | – | –
322.75 K, m1 = 0.2491 | 1013.6 | – | –
322.75 K, m1 = 4.051 | 1318.5 | – | –
322.8 K, m1 = 4.97 | 1375.7 | – | –
323.05 K, m1 = 4.403 | 1341.3 | – | –
323.15 K, m1 = 0.0145 | – | 1545.7 | 0.5591
323.15 K, m1 = 0.0528 | – | 1548 | 0.5708
323.15 K, m1 = 0.2491 | – | 1559.2 | 0.6023
323.15 K, m1 = 0.3405 | – | 1563.6 | –
323.15 K, m1 = 0.5931 | – | – | 0.6703
323.15 K, m1 = 0.6173 | – | 1576.6 | –
323.15 K, m1 = 0.896 | – | 1593.9 | –
323.15 K, m1 = 0.9898 | – | 1600.3 | 0.7676
323.15 K, m1 = 1.262 | – | 1614.9 | 0.8482
323.15 K, m1 = 1.525 | – | 1631.4 | –
323.15 K, m1 = 1.827 | – | 1651.2 | 1.028
323.15 K, m1 = 2.131 | – | 1667.3 | 1.145
323.15 K, m1 = 2.493 | – | 1689.2 | –
323.15 K, m1 = 2.584 | – | – | 1.353
323.15 K, m1 = 2.793 | – | 1707.5 | –
323.15 K, m1 = 3.096 | – | – | 1.629
323.15 K, m1 = 3.118 | – | 1725.2 | –
323.15 K, m1 = 3.17 | – | 1731.8 | –
323.15 K, m1 = 3.329 | – | – | 1.772
323.15 K, m1 = 3.501 | – | 1744 | –
323.15 K, m1 = 3.704 | – | – | 2.028
323.15 K, m1 = 3.757 | – | 1758.7 | –
323.15 K, m1 = 4.039 | – | – | 2.319
323.15 K, m1 = 4.051 | – | 1770.9 | –
323.15 K, m1 = 4.285 | – | 1783.2 | –
323.15 K, m1 = 4.403 | – | 1789.3 | –
323.15 K, m1 = 4.728 | – | – | 3.107
323.15 K, m1 = 4.883 | – | 1811.5 | –
323.15 K, m1 = 4.907 | – | – | 3.418
323.15 K, m1 = 5.134 | – | 1828.2 | –
323.15 K, m1 = 5.282 | 1395.1 | – | 3.975
323.4 K, m1 = 0.6173 | 1049 | – | –
323.5 K, m1 = 1.525 | 1130.6 | – | –
323.5 K, m1 = 3.757 | 1300.1 | – | –
323.55 K, m1 = 3.17 | 1265.4 | – | –
323.6 K, m1 = 3.118 | 1256.7 | – | –
323.75 K, m1 = 1.262 | 1107.8 | – | –
323.95 K, m1 = 0.9898 | 1084 | – | –
323.95 K, m1 = 2.131 | 1182.5 | – | –
324.25 K, m1 = 1.827 | 1157.4 | – | –
324.45 K, m1 = 5.134 | 1385.4 | – | –
324.95 K, m1 = 1.694 | 1144.5 | – | –
325.25 K, m1 = 5.282 | 1393.7 | – | –
